Results: ChEMBL document CHEMBL3758163, “Extended structure-activity study of thienopyrimidine-based EGFR inhibitors with evaluation of drug-like properties” (Eur J Med Chem, 2016)
≈ marks a conversion by molar mass, not a printed value.

Key:
[1] = target: Receptor tyrosine-protein kinase erbB-4 (Homo sapiens) (UniProt Q15303); assay: Inhibition of ERBB4 (unknown origin) at 500 nM
[2] = Toxicity in zebrafish embryo assessed as survival for 3.5 days; assay type: organism-based, Danio rerio; conditions: in vivo
[3] = target: T1, Aurora kinase A (Homo sapiens) (UniProt O14965); assay: Inhibition of AURKA (unknown origin) at 500 nM
T1 sequence (whole entry): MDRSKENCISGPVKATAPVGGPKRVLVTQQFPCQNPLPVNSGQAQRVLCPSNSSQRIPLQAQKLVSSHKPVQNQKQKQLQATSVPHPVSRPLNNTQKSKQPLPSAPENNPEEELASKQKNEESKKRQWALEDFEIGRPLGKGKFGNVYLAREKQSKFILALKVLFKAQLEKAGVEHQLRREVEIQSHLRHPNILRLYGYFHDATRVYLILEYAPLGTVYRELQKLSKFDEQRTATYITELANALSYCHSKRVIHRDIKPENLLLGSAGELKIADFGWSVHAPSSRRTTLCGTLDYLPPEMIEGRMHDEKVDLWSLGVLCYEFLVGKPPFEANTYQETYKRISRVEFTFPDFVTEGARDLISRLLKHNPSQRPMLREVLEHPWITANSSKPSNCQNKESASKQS

[4] = target: T2, Inhibitor of nuclear factor kappa-B kinase subunit beta (Homo sapiens) (UniProt O14920); assay: Inhibition of IKBKB (unknown origin) at 500 nM
T2 sequence (whole entry): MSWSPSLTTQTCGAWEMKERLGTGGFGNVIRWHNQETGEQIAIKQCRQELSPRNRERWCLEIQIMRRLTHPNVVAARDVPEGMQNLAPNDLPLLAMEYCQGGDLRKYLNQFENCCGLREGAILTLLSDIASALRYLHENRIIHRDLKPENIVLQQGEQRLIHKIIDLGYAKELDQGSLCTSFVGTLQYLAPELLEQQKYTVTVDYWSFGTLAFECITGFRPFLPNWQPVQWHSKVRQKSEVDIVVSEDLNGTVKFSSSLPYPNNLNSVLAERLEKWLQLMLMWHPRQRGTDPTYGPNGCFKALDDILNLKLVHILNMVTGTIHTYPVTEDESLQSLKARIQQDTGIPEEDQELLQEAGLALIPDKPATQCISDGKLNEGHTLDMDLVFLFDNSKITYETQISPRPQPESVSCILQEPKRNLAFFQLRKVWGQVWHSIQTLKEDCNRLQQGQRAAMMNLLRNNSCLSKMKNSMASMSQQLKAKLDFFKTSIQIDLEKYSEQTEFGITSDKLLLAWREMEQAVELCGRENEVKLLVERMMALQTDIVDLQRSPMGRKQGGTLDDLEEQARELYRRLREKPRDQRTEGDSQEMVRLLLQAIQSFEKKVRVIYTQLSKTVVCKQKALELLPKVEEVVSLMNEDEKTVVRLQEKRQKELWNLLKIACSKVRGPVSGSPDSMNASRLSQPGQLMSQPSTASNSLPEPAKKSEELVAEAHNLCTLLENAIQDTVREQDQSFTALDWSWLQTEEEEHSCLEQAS

[5] = target: Hepatocyte growth factor receptor (Homo sapiens) (UniProt P08581); assay: Inhibition of MET (unknown origin) at 500 nM
Chain of Hepatocyte growth factor receptor (Homo sapiens) (P08581 whole entry): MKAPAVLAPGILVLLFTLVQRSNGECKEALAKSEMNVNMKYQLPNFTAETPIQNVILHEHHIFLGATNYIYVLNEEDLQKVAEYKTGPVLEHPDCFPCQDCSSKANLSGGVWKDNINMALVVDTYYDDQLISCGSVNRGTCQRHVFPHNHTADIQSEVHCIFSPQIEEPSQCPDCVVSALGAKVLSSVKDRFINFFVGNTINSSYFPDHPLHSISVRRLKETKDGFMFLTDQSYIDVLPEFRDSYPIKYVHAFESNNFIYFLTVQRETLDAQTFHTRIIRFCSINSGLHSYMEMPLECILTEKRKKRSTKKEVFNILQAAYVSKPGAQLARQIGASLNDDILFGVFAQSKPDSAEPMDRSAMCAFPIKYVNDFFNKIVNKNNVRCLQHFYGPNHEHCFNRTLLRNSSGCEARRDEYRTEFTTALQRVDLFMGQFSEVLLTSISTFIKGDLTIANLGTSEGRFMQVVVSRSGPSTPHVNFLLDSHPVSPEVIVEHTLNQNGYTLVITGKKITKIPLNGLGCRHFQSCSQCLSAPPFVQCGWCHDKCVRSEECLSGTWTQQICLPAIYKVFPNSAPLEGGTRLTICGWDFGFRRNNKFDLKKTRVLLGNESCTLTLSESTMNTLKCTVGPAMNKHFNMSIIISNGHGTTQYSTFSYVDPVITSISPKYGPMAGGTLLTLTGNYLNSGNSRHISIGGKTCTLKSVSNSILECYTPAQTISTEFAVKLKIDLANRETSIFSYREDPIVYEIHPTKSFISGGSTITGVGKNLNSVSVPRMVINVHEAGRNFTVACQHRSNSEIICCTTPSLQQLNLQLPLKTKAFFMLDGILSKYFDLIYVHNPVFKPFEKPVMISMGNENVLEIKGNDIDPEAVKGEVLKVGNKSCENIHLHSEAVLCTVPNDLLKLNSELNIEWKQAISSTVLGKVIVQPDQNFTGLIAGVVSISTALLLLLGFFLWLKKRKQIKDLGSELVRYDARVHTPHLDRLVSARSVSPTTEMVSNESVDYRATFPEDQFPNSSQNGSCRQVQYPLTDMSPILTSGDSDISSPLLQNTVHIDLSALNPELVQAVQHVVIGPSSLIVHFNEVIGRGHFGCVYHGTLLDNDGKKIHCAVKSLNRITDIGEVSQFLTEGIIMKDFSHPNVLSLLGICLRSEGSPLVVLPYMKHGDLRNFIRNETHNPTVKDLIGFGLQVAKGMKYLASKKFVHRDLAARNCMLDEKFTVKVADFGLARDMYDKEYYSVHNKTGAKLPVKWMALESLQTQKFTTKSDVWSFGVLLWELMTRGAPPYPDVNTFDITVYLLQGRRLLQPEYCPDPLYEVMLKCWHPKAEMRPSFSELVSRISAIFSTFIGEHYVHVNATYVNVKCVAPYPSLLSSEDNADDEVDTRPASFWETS

[6] = target: Tyrosine-protein kinase Lyn (Homo sapiens) (UniProt P07948); assay: Inhibition of LYN A (unknown origin) at 500 nM
Chain of Tyrosine-protein kinase Lyn (Homo sapiens) (P07948 2-512 limits assumed): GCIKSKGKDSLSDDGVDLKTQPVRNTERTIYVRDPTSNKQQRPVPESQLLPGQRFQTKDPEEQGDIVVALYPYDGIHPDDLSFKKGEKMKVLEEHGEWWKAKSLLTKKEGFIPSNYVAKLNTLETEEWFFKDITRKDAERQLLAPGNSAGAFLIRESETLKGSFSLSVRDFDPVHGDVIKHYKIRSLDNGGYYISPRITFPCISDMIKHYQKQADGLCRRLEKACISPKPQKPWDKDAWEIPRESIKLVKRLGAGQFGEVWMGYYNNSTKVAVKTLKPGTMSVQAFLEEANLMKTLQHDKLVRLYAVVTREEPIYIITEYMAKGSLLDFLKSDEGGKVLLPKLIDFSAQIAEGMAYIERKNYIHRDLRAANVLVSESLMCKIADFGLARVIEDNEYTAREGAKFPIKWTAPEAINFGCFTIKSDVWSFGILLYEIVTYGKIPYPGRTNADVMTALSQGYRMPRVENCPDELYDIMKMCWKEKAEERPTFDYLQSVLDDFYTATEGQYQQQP

Danio rerio [7] = species: Danio rerio; assay: Toxicity in zebrafish embryo assessed as kinked tails at 50 and 100 uM; assay type: organism-based; conditions: in vivo
[8] = target: Protein kinase C beta type (Homo sapiens) (UniProt P05771); assay: Inhibition of PRKCB1 (unknown origin) at 500 nM
Chain of Protein kinase C beta type (Homo sapiens) (P05771 2-671 limits assumed): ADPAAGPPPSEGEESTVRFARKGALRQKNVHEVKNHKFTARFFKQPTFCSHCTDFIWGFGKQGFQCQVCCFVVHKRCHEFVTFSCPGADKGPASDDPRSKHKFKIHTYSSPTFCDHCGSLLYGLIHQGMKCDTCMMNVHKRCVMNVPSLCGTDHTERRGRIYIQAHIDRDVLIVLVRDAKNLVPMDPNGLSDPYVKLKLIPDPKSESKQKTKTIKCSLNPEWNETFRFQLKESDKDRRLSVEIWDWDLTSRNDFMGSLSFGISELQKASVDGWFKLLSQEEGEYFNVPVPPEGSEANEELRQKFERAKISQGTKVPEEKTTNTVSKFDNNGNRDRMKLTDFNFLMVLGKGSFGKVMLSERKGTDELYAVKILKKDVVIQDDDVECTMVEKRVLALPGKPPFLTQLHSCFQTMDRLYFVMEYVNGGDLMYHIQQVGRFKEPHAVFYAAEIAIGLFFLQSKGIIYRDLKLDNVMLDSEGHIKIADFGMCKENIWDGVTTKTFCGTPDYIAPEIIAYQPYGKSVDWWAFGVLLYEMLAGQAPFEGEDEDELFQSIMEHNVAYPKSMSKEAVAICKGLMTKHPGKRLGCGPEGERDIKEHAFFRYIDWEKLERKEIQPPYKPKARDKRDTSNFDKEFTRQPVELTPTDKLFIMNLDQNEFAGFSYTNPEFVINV

[9] = target: Epidermal growth factor receptor (Homo sapiens, UniProt P00533); assay: Inhibition of EGFR (unknown origin) by Z -LYTE assay
Chain of Epidermal growth factor receptor (P00533 whole entry): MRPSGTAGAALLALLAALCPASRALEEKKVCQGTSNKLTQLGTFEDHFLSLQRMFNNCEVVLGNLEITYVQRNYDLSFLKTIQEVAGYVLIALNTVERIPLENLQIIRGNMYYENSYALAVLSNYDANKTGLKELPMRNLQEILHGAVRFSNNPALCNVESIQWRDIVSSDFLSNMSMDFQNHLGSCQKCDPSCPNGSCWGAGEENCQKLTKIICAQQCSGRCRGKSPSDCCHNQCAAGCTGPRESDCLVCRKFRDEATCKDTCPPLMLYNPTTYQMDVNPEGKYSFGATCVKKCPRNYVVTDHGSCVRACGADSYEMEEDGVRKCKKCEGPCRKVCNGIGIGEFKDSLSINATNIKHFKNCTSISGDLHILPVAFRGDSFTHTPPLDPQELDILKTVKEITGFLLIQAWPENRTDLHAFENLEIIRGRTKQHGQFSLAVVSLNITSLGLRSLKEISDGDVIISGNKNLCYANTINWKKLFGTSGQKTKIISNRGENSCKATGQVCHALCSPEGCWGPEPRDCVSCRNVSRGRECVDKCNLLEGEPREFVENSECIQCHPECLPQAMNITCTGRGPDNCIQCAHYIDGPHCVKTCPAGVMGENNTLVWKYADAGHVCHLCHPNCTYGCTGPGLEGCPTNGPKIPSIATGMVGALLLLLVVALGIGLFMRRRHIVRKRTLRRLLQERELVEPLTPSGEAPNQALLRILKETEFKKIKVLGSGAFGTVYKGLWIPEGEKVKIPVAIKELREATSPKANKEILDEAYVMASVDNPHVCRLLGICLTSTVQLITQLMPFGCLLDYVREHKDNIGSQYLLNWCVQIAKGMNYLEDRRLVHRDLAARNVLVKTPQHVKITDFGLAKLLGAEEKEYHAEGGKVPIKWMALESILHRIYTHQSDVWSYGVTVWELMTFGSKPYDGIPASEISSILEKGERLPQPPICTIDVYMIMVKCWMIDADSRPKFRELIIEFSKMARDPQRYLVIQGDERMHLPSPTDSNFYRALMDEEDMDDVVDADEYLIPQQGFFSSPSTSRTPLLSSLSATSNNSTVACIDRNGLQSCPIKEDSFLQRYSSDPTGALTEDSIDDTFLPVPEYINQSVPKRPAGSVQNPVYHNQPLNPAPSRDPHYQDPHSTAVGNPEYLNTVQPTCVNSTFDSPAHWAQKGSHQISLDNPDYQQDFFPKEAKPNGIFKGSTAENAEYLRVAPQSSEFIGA

[10] = target: Tyrosine-protein kinase Fgr (Homo sapiens) (UniProt P09769); assay: Inhibition of FGR (unknown origin) at 500 nM
[11] = Toxicity in zebrafish embryo assessed as morphological defects for 3.5 days; assay type: organism-based, Danio rerio
[12] = target: Glycogen synthase kinase-3 beta (Homo sapiens) (UniProt P49841); assay: Inhibition of GSK3B (unknown origin) at 500 nM
[13] = target: Vascular endothelial growth factor receptor 1 (Homo sapiens) (UniProt P17948); assay: Inhibition of FLT1 (unknown origin) at 500 nM
Chain of Vascular endothelial growth factor receptor 1 (Homo sapiens) (P17948 whole entry): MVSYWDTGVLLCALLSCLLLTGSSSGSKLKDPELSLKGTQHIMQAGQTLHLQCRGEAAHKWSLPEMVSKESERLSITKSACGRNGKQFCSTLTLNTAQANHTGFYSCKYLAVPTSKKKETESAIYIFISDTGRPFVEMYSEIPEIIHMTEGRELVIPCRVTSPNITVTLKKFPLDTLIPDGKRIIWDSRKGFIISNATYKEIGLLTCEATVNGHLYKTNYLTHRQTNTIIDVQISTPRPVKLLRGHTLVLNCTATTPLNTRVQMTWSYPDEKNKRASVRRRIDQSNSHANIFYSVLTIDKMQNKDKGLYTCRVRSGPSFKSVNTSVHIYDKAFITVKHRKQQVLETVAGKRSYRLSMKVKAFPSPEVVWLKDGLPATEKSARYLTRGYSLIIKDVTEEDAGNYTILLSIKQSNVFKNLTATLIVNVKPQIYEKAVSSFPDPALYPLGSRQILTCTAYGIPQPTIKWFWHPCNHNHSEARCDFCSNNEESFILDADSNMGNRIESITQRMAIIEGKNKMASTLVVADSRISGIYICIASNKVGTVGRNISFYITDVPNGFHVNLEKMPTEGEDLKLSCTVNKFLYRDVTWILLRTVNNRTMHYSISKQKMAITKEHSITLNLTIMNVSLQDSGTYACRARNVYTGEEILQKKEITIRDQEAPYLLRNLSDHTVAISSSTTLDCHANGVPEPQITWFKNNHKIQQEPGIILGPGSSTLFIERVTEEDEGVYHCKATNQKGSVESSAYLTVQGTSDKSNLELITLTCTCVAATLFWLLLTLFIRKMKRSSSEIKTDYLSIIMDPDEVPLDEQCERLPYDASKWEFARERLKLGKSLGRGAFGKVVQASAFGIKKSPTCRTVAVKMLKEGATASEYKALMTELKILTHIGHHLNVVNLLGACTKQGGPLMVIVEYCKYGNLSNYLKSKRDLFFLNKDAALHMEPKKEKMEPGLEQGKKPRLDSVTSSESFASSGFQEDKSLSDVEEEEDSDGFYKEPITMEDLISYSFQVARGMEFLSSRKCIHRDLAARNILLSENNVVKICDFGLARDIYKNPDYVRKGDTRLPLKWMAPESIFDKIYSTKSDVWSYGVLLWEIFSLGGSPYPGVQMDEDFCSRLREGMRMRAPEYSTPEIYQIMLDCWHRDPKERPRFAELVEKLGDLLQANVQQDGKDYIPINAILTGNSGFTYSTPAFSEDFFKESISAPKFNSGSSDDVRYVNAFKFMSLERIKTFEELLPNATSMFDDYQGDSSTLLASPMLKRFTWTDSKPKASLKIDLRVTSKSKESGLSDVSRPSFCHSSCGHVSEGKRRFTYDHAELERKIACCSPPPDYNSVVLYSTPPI

Danio rerio [14] = species: Danio rerio; assay: Toxicity in zebrafish embryo assessed as effect on morphology upto 25 uM; assay type: organism-based; conditions: in vivo
[15] = Antiproliferative activity against human PC9 cells after 96 hrs by Sytox green marker based fluorescence analysis; assay type: functional, cell-based; conditions: PC-9, 96 h
H9 = assay: Antiproliferative activity against human H9 cells after 72 hrs by CellTiter-Glo assay; assay type: functional, cell-based; conditions: H9, 72 h
SW480 = assay: Antiproliferative activity against human SW480 cells after 72 hrs by CellTiter-Glo assay; assay type: functional, cell-based; conditions: SW480, 72 h
[16] = Antiproliferative activity against human OVCAR3 cells after 72 hrs by CellTiter-Glo assay; assay type: functional, cell-based; conditions: OVCAR-3, 72 h
[17] = Antiproliferative activity against human U937 cells after 72 hrs by CellTiter blue assay; assay type: functional, cell-based; conditions: U-937, 72 h
[18] = Antiproliferative activity against human Calu3 cells after 72 hrs by CellTiter blue assay; assay type: functional, cell-based; conditions: Calu-3, 72 h
MRC5 = assay: Antiproliferative activity against human MRC5 cells after 72 hrs by CellTiter-Glo assay; assay type: cell-based; conditions: MRC5, 72 h
[19] = Antiproliferative activity against human BT474 cells after 72 hrs by CellTiter blue assay; assay type: functional, cell-based; conditions: BT-474, 72 h
FaDu = assay: Antiproliferative activity against human FADU cells; assay type: functional, cell-based
[20] = Antiproliferative activity against human SKBR3 cells after 72 hrs by CellTiter blue assay; assay type: functional, cell-based; conditions: SK-BR-3, 72 h
[21] = Antiproliferative activity against human Hs578T cells after 72 hrs by CellTiter-Glo assay; assay type: functional, cell-based; conditions: Hs-578T
[22] = Aqueous solubility of compound in 0.01 M PBS buffer at pH 7.4 after 2 hrs by turbidimetric assay; assay type: physicochemical
in vitro = conditions: human, Caco-2
Description: Efflux ratio of permeability from basolateral to apical side over apical to basolateral side in human Caco2 cells at 10 uM by LC-MS/MS analysis

| inhibition [1] | inhibition [3] | inhibition [4] | inhibition [5] | inhibition [6] | inhibition [8] | IC50 [9] | inhibition [10] | inhibition [12] | inhibition [13] | solubility kinetic at 2 h [22] | Structure (SMILES) | also measured |
| --- | --- | --- | --- | --- | --- | --- | --- | --- | --- | --- | --- | --- |
| 14% | 3% | 7% | – | 38% | 2% | 0.002 µM | 18% | 5% | 1% | – | C[C@@H](Nc1ncnc2sc(-c3ccc(C(=O)NCCN(C)C)cc3)cc12)c1ccccc1 | – |
| 12% | 14% | -4% | – | 13% | -2% | 0.005 µM | 11% | 8% | -7% | – | C#Cc1cccc(Nc2ncnc3sc(-c4ccc(CO)cc4OC)cc23)c1 | – |
| 31% | -6% | 1% | -5% | 13% | -2% | 0.002 µM | 11% | 4% | 2% | 2 µM (≈ 0.832 µg/mL) | COc1cc(CO)ccc1-c1cc2c(Nc3ccc(F)c(Cl)c3)ncnc2s1 | – |
| 78% | – | -5% | 11% | 68% | -2% | – | 42% | -8% | 17% | 20 µM (≈ 7.87 µg/mL) | C#Cc1cccc(Nc2ncnc3cc(OCCOC)c(OCCOC)cc23)c1 [ERLOTINIB] | IC50 [15]: 0.07 µM; IC50 (H9): 1.3 µM; IC50 (SW480): > 100 µM; IC50 [16]: 4.6 µM; IC50 [17]: 9.9 µM; IC50 [18]: 4.7 µM; IC50 (MRC5): 5.8 µM; IC50 [19]: 13 µM; Activity (Danio rerio [7]): Toxic; IC50 (FaDu): 18 µM; IC50 [20]: > 100 µM; IC50 [21]: > 100 µM; EC50 at 3.5 days [11]: 60 µM; Activity (Danio rerio [14]): Non-toxic |
| 46% | -4% | 3% | -9% | 57% | -2% | 0.0005 µM | 71% | 13% | -8% | > 100 µM | COc1ccc(C(=O)NCCN(C)C)cc1-c1cc2c(N[C@H](C)c3ccccc3)ncnc2s1 | efflux ratio at 10 µM (in vitro): 63 |
| 30% | 1% | 10% | 15% | 61% | 1% | – | 40% | 7% | 4% | – | COc1cc(CO)ccc1-c1cc2c(N[C@H](C)c3ccccc3)ncnc2s1 | – |
| 22% | -3% | 4% | 7% | 24% | -7% | 0.014 µM | 25% | 5% | 9% | – | COc1cc(CO)ccc1-c1cc2c(Nc3ccccc3)ncnc2s1 | – |
| 30% | 6% | 3% | -3% | 31% | 18% | 0.002 µM | 33% | 3% | 5% | 65 µM (≈ 30 µg/mL) | CN(C)CCNC(=O)c1ccc(-c2cc3c(N[C@H](CO)c4ccccc4)ncnc3s2)cc1 | efflux ratio at 10 µM (in vitro): > 20 |
| 10% | 6% | 6% | – | 16% | 3% | 0.276 µM | 2% | 6% | 4% | – | C[C@@H](Nc1ncnc2sc(-c3ccccc3C(N)=O)cc12)c1ccccc1 | – |

| Structure (SMILES) | inhibition [1] | inhibition [3] | inhibition [4] | inhibition [5] | inhibition [6] | inhibition [8] | IC50 [9] | inhibition [10] | inhibition [12] | inhibition [13] | solubility kinetic at 2 h [22] | also measured |
| --- | --- | --- | --- | --- | --- | --- | --- | --- | --- | --- | --- | --- |
| COc1cc(C(N)=O)ccc1-c1cc2c(N[C@H](CO)c3ccccc3)ncnc2s1 | 62% | 6% | 3% | -5% | 47% | 5% | 0.0015 µM | 40% | 17% | 0% | – | LC50 at 84 h [2]: > 100 µM; Activity (Danio rerio [7]): Toxic; EC50 at 3.5 days [11]: 46 µM; Activity (Danio rerio [14]): Non-toxic |
| COc1cc(CO)ccc1-c1cc2c(N[C@H](CO)c3ccccc3)ncnc2s1 | 63% | 5% | 1% | 3% | 40% | 4% | – | 58% | 8% | 1% | – | IC50 [15]: 0.09 µM; LC50 at 84 h [2]: > 100 µM; IC50 (H9): 12 µM; IC50 (SW480): 19 µM; IC50 [16]: 9.7 µM; IC50 [17]: 18 µM; IC50 [18]: 4.2 µM; IC50 (MRC5): 37 µM; IC50 [19]: 11 µM; Activity (Danio rerio [7]): Toxic; IC50 (FaDu): 43 µM; IC50 [20]: 17 µM; IC50 [21]: 43 µM; EC50 at 3.5 days [11]: 49 µM; Activity (Danio rerio [14]): Non-toxic |
